One data set addresses T1, VEGFR3 (Homo sapiens, UniProt P35916).
T1 construct: purchased Invitrogen PV4129
The data set can be described thus: Kinase inhibition, Mobility Shift Assay/IMAP, VEGFR3. The data set is classed as biochemical. An excerpt:
(§1) This assay directly monitored the ability of compounds to inhibit kinase phosphorylation by measuring non-phosphorylated and phosphorylated substrates in kinase reactions by using Mobility Shift Assays/IMAP™ analysis.
(§2) Read the conversion ratio data on CaliperEZ Reader II. Convert conversion rates into inhibition ratio data.
(§3) “Min” indicates the readout of the control well without the addition of enzymes; and “Max” indicates the readout of the control well with the addition of DMSO Fit IC50 values with XL Fit excel add-in version […].
(§4) X indicates the log value of compound concentration, and Y indicates the inhibition ratio (% inhibition).

Another data set addresses VEGFR2 (Homo sapiens, UniProt P35968). The data set can be described thus: Kinase inhibition, Mobility Shift Assay/IMAP, VEGFR2. The data set is classed as biochemical. Also noted: purchased Carna 08-191. In outline:
(§5)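 Substrate conversion (phosphorylated vs non-phosphorylated) read by mobility shift on Caliper EZ Reader II and converted to % inhibition relative to no-enzyme and DMSO controls. IC50 fitted from % inhibition versus log compound concentration.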

Another data set deals with T2, VEGFR1 (Homo sapiens, UniProt P17948).
T2 construct: purchased Invitrogen PR6731B
The data set can be described thus: Kinase inhibition, Mobility Shift Assay/IMAP, VEGFR1. The data set is classed as biochemical.
Text: as §1, §2, §3, §4

The next data set concerns the target T3, TIE2 (Homo sapiens, UniProt Q02763).
T3 construct: purchased BPS 40270
The data set can be described thus: Kinase inhibition, Mobility Shift Assay/IMAP, TIE2. The data set is classed as biochemical.
Text: as §1, §2, §3, §4

A further data set deals with T4, EGFR (Homo sapiens, UniProt P00533).
T4 construct: purchased Carna 08-115
The data set can be described thus: Kinase inhibition, Mobility Shift Assay/IMAP, EGFR. It is filed as biochemical. A digest of the protocol: as §5

A further data set deals with melanin. The data set can be described thus: Binding capacity of compounds to melanin. The note with it: cuttlefish (Sepia officinalis), melanin suspension (1 mg/mL); 1 mg/mL melanin in PBS pH 7.4, 2 μM compound, 2 h at 37° C.; read-out: Fu % (percentage of free drug). The data set is classed as in vitro ADME, cuttlefish (Sepia officinalis). An excerpt: Pigmented eye tissues contain melanin in intracellular melanosomes. Drugs bind to melanin to varying degrees, ranging from non-binding to extensive binding. Therefore, melanin binding is an important feature that affects drug delivery and biodistribution in the eye. The binding capacity of the compound to the melanin must be considered in the development of ophthalmic drugs.
Melanin was derived from the melanin of cuttlefish (Sepia officinalis) and was commercially available from Sigma Aldrich (St Louis, MO).
First, prepare 1 mg/mL melanin suspension with PBS (pH 7.4). As a washing step for the matrix, centrifuge the suspended particles for 5 min at 3000 rpm. Resuspend the resulting particles in a fresh PBS buffer, heat to 37° C. over continuous shaking and incubate it for 1 h. Accurately pipette 2 μL of the test stock solution (0.1 mM) into 98 μL of melanin suspension (1 mg/mL) to achieve a final incubation concentration of 2 μM. Similarly, accurately pipette 2 μL of the stock solution (0.1 mM) to 98 μL of PBS buffer (containing 0.1% BSA) as a blank control sample. Incubate the samples in a shaker (80-90 rpm) for 2 h at 37° C. Then, centrifuge the samples at room temperature. Pipette 50 μL of the supernatant and add 50 μL of precipitant (containing an internal standard). After protein precipitation of all the above samples, centrifuge the samples to collect the supernatants, dilute the supernatants with water (if necessary) and inject them for analysis. At the same time, measure the positive controls, including the high-binding compounds Sunitinib and chloroquine and the low-binding compound celecoxib. Establish an LC-MS/MS method for determining compound concentrations, and calibrate the peak area ratio of analyte/internal standard (Analyte/AIS) in the measured sample by the dilution factor to take it as an alternative concentration for the sample for data processing. The binding rate (Fb) of a compound in melanin was calculated as: […]
Ctest was the concentration of the compound in the melanin-incubated sample or the peak area ratio of the test compound to the internal standard. Ccontrol was the concentration of the compound in the blank control sample or the peak area ratio of the test compound to the internal standard. […]

The source of these data is patent US20260217698A1 (BEYANG THERAPEUTICS CO., LTD., priority 2022, published 2026).

T2 sequence (P17948 27-1338): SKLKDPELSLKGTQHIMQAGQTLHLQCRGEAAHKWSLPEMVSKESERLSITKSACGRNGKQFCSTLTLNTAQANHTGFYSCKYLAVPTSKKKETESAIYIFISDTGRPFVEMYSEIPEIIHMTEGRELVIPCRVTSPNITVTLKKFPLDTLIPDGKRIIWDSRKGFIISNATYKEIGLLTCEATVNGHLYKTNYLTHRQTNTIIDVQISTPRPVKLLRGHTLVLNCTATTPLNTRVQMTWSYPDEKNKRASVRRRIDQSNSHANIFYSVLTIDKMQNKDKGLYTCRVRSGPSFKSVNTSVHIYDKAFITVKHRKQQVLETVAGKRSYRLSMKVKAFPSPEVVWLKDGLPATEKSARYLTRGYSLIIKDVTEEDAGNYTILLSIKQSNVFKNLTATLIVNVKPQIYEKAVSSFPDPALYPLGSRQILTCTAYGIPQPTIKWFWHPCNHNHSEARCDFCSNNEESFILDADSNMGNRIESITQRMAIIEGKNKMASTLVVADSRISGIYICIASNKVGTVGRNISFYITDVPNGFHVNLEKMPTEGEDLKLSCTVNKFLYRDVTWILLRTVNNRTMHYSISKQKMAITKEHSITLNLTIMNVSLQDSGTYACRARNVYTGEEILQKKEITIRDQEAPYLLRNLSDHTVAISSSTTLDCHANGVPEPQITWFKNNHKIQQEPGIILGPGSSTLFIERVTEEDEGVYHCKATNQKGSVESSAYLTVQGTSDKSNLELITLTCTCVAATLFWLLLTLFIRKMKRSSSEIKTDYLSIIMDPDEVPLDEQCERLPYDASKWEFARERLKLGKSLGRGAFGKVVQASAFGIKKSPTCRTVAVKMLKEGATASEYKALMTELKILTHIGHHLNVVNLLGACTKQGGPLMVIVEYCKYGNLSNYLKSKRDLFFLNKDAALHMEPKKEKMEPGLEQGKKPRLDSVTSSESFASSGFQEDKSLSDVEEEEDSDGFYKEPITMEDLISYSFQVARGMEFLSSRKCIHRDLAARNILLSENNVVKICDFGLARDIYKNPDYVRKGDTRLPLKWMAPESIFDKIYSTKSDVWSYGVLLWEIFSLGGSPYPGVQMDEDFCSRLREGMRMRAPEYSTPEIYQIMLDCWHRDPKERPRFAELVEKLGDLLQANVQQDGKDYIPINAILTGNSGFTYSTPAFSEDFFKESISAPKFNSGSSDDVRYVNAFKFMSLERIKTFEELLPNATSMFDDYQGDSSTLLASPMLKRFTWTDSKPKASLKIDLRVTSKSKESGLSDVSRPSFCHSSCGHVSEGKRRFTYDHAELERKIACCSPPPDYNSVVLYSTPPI
VEGFR2, sequence (P35968 790-1356 limits assumed): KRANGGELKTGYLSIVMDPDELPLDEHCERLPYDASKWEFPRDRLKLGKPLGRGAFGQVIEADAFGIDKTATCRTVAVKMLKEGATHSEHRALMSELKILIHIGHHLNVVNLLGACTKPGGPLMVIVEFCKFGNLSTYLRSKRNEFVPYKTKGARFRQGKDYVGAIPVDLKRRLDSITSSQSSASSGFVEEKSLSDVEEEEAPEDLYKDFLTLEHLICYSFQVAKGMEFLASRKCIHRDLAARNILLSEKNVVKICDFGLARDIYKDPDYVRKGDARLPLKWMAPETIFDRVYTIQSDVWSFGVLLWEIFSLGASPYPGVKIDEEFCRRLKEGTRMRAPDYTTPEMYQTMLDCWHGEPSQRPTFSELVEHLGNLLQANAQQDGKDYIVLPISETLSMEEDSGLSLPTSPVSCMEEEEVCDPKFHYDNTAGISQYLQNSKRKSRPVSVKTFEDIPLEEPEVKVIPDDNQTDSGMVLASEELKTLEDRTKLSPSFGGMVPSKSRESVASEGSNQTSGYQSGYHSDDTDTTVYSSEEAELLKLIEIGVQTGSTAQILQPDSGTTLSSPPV
T4 sequence (P00533 669-1210 limits assumed): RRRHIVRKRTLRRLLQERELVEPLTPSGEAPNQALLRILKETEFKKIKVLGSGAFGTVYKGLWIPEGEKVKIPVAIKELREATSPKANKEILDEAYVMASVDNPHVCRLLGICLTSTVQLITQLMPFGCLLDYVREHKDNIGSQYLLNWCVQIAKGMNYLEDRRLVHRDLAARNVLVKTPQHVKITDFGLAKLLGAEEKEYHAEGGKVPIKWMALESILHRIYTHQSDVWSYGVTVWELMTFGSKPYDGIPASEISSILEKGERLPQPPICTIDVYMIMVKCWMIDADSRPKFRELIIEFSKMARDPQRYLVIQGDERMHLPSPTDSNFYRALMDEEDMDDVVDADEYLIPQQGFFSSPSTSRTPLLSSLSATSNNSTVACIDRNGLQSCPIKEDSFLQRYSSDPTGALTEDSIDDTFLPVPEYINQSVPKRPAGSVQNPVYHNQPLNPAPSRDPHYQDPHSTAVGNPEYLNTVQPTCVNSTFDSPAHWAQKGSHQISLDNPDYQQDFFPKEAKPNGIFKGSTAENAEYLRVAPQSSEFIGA
T3 sequence (Q02763 23-1124): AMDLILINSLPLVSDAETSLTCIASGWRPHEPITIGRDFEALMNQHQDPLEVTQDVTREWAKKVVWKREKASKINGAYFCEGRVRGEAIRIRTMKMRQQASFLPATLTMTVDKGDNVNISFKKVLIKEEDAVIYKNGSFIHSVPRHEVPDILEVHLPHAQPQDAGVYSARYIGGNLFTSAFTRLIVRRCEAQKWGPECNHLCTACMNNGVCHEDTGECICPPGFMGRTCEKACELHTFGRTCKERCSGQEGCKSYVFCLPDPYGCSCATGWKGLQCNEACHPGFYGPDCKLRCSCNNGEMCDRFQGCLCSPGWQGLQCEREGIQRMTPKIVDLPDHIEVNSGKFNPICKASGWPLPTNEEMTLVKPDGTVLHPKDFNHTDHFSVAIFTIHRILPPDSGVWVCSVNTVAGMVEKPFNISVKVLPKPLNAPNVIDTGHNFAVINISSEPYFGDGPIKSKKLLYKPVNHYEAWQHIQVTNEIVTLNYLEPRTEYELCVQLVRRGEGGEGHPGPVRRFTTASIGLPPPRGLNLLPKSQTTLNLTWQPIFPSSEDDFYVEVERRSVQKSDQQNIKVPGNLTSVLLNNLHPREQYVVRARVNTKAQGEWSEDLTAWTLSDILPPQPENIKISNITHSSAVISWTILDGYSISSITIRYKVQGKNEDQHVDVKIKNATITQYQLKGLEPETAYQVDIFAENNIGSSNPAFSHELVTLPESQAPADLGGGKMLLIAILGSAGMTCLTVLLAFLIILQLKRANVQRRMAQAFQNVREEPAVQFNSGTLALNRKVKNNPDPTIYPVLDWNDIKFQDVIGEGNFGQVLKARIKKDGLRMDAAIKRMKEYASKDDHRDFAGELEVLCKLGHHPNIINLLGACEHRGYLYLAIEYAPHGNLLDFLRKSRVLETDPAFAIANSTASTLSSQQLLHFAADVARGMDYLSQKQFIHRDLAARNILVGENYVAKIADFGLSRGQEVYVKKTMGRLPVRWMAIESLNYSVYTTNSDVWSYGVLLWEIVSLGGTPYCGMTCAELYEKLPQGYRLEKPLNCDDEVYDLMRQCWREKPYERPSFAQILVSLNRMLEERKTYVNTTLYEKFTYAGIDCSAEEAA
T1 sequence (P35916 25-1363): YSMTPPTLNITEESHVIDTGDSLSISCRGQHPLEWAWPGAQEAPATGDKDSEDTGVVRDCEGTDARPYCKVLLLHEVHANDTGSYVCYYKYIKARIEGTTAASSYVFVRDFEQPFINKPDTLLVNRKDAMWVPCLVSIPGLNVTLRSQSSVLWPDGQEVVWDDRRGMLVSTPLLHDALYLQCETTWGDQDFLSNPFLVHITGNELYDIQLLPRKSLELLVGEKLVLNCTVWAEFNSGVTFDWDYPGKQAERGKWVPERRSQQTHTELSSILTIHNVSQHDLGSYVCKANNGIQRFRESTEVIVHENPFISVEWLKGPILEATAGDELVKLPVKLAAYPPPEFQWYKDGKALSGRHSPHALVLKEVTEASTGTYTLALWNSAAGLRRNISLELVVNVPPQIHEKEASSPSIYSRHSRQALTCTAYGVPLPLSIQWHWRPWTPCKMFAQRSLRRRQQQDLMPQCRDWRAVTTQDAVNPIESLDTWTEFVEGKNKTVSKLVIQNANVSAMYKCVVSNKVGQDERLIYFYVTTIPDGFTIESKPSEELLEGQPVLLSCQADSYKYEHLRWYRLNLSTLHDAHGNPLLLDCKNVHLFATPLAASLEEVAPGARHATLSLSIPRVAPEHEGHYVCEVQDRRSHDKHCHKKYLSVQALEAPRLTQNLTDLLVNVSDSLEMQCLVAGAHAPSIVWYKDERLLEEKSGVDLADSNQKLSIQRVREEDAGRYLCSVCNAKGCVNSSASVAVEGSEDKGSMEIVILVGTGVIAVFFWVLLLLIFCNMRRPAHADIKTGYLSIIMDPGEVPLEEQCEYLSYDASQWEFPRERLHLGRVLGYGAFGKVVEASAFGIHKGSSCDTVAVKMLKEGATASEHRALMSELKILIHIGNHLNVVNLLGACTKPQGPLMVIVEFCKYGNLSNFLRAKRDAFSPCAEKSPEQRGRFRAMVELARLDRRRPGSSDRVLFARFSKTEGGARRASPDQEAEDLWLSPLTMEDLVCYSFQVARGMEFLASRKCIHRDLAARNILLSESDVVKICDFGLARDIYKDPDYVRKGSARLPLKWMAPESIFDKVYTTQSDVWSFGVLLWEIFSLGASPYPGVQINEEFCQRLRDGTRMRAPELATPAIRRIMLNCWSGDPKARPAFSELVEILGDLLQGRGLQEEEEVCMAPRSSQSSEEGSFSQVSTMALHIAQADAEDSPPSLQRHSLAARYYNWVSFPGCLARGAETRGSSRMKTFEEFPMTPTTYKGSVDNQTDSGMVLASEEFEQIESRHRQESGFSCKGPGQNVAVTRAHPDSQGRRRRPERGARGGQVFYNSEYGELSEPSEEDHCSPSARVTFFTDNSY

As for `NC(=O)c1c(OCc2c(F)cc(Br)cc2F)nsc1Nc1cnn(CCN2CCNCC2)c1` [Compound T050, 3-((4-bromo-2,6-difluorobenzyl)oxy)-5-((1-(2-(piperazin-1-yl)ethyl)-1H-pyrazol-4-yl)amino)isothiazole-4-carboxamide], the results for the IC50 at VEGFR3, on VEGFR2 and on VEGFR1 were 16.1 nM, 3.68 nM and 6.08 nM, respectively.

As to `CN(C)CCCn1ncc(Nc2snc(OCc3c(F)cc(Br)cc3F)c2C(N)=O)n1` [Compound T052, 3-((4-bromo-2,6-difluorobenzyl)oxy)-5-((2-(3-(dimethylamino)propyl)-2H-1,2,3-triazol-4-yl)amino)isothiazole-4-carboxamide], the values for the IC50 at VEGFR3, on VEGFR2 and on VEGFR1 were 18.7 nM, 8.17 nM and 42.1 nM, respectively.

For `NC(=O)c1c(OCc2ccc3ccoc3c2)nsc1NC(=O)NCCCCN1CCCC1` [Compound T054, 3-(benzofuran-6-ylmethoxy)-5-(3-(4-(pyrrolidin-1-yl)butyl)ureido)isothiazole-4-carboxamide], the IC50 (in general, the concentration at which inhibition is half-maximal) at VEGFR3 is 38.8 nM; on VEGFR2, 17.7 nM; on VEGFR1 it was 34.3 nM; at TIE2 it was 157 nM.

Turning to `COc1cc(COc2nsc(NC(=O)NCCCCN3CCC(F)(F)C3)c2C(N)=O)cc(OC)c1` [Compound T063, 5-(3-(4-(3,3-difluoropyrrolidin-1-yl)butyl)ureido)-3-((3,5-dimethoxybenzyl)oxy)isothiazole-4-carboxamide], the IC50 at VEGFR3 was 39.1 nM; on VEGFR2, 63 nM; on EGFR, more than 60000 nM; on TIE2, 1000 nM. Further, the fraction unbound at 2 h, 2 μM in the data set on melanin was 0.0871.

In the case of `NC(=O)c1c(OCc2cccc(C(=O)NC3CC3)c2)nsc1NC(=O)NCCN1CCCC1` [Compound T066, 3-((3-(cyclopropylcarbamoyl)benzyl)oxy)-5-(3-(2-(pyrrolidin-1-yl)ethyl)ureido)isothiazole-4-carboxamide], the IC50 on VEGFR2 is 77.8 nM; at EGFR, more than 60000 nM; at VEGFR1, 37.9 nM; on TIE2, 10000 nM.

In the case of `CN1CCC(CCNC(=O)Nc2snc(OCc3ccc4c(c3F)OCC4)c2C(N)=O)CC1` [Compound T075, 3-((7-fluoro-2,3-dihydrobenzofuran-6-yl)methoxy)-5-(3-(2-(1-methylpiperidin-4-yl)ethyl)ureido)isothiazole-4-carboxamide], the IC50 on VEGFR3 came to 48.8 nM; at VEGFR2, 23 nM; at EGFR, 24300 nM; on VEGFR1 it was 44 nM. Further, the fraction unbound at 2 h, 2 μM in the data set with melanin amounted to 0.0391.

For the compound `CCN1CCC(CCNC(=O)Nc2snc(OCc3ccc4c(c3)OCC4)c2C(N)=O)CC1` [Compound T076, 3-(2,3-dihydrobenzofuran-6-ylmethoxy)-5-[2-(1-ethyl-4-piperidyl)ethylcarbamoylamino]isothiazole-4-carboxamide], the IC50 at VEGFR3 amounted to 23.8 nM; at VEGFR2 it was 12.6 nM; at EGFR it was 43600 nM; at VEGFR1, 26.7 nM. Further, the fraction unbound at 2 h, 2 μM in the data set with melanin worked out at 0.0311.

In the case of `CN1CCN(CCCNC(=O)Nc2snc(OCc3ccc4c(c3)OCC4)c2C(N)=O)CC1` [Compound T077, 3-(2,3-dihydrobenzofuran-6-ylmethoxy)-5-[3-(4-methylpiperazin-1-yl)propylcarbamoylamino]isothiazole-4-carboxamide], the IC50 at VEGFR3 was 44 nM; on VEGFR2, 7.01 nM; at EGFR, 52000 nM; on VEGFR1, 33 nM. Further, the fraction unbound at 2 h, 2 μM with melanin turned out to be 0.0385.

Regarding `NC(=O)c1c(OCc2cc3c(cc2F)CCO3)nsc1NC(=O)NCCCN1CC[C@@H](F)C1` [Compound T080, 3-[(5-fluoro-2,3-dihydrobenzofuran-6-yl)methoxy]-5-[3-[(3R)-3-fluoropyrrolidin-1-yl]propylcarbamoylamino]isothiazole-4-carboxamide], the IC50 worked out at 26.1 nM on VEGFR3, 8050 nM at EGFR, 13.5 nM at VEGFR1 and 88 nM at TIE2. For the same compound, the fraction unbound at 2 h, 2 μM with melanin stood at 0.0582.

Turning to `NC(=O)c1c(OCc2cc3c(cc2F)CCO3)nsc1NC(=O)NCCN1CC[C@@H](F)C1` [Compound T081, 3-[(5-fluoro-2,3-dihydrobenzofuran-6-yl)methoxy]-5-[2-[(3R)-3-fluoropyrrolidin-1-yl]ethylcarbamoylamino]isothiazole-4-carboxamide], the IC50 at VEGFR3 stood at 23.9 nM; at VEGFR2 it was 16 nM; on EGFR, 19600 nM; on VEGFR1 it was 21.9 nM. Also, in the data set on melanin, the fraction unbound at 2 h, 2 μM came out at 0.0632.

For the compound `NC(=O)c1c(OCc2cc3c(cc2F)CCO3)nsc1NC(=O)NCCN1CCCCC1` [Compound T082, 3-[(5-fluoro-2,3-dihydrobenzofuran-6-yl)methoxy]-5-[2-(1-piperidyl)ethylcarbamoylamino]isothiazole-4-carboxamide], the IC50 came out at 48.5 nM at VEGFR3; 24 nM at VEGFR2; 15500 nM on EGFR; 27.8 nM at VEGFR1; 203 nM on TIE2. Moreover, the fraction unbound at 2 h, 2 μM in the data set with melanin amounted to 0.0757.

Regarding `NC(=O)c1c(OCc2ccc3c(c2)OCC3)nsc1NC(=O)NCCC1CCN(C2CC2)CC1` [Compound T083, 5-[2-(1-cyclopropyl-4-piperidyl)ethylcarbamoylamino]-3-(2,3-dihydrobenzofuran-6-ylmethoxy)isothiazole-4-carboxamide], the IC50 was 22.3 nM on VEGFR3; 12.7 nM on VEGFR2; 18100 nM on EGFR; 25.6 nM on VEGFR1; 164 nM at TIE2. For the same compound, the fraction unbound at 2 h, 2 μM in the data set on melanin was 0.0749.

As to `NC(=O)c1c(OCc2ccc3c(c2)OCC3)nsc1NC(=O)NCCC1CCN(CCF)CC1` [Compound T084, 3-(2,3-dihydrobenzofuran-6-ylmethoxy)-5-[2-[1-(2-fluoroethyl)-4-piperidyl]ethylcarbamoylamino]isothiazole-4-carboxamide], the IC50 on VEGFR3 was determined as 37.1 nM; at VEGFR2, 14.1 nM; at EGFR, 15800 nM; at VEGFR1 it was 30.1 nM; on TIE2, 221 nM.

As to `NC(=O)c1c(OCc2cc(F)cc(C(=O)NC3CC3)c2)nsc1NC(=O)NCCCCN1CCCC1` [Compound T085, 3-[[3-(cyclopropylcarbamoyl)-5-fluoro-phenyl]methoxy]-5-(4-pyrrolidin-1-ylbutylcarbamoylamino)isothiazole-4-carboxamide], the IC50 at VEGFR3 was 10.6 nM; on VEGFR2, 1.7 nM; at EGFR, more than 60000 nM; on VEGFR1, 4.95 nM; at TIE2 it was 4590 nM. In addition, the fraction unbound at 2 h, 2 μM with melanin is 0.0612.

As to `CN1CCC(CCNC(=O)Nc2snc(OCc3cc(F)c4c(c3)OCC4)c2C(N)=O)CC1` [Compound T089, 3-((4-fluoro-2,3-dihydrobenzofuran-6-yl)methoxy)-5-(3-(2-(1-methylpiperidin-4-yl)ethyl)ureido)isothiazole-4-carboxamide], the IC50 was 9.9 nM at VEGFR3; 6.77 nM on VEGFR2; 15100 nM at EGFR; 13.5 nM on VEGFR1; 135 nM on TIE2. Further, the fraction unbound at 2 h, 2 μM in the data set on melanin came to 0.0235.
